# Measurements from patent US7807439B2, “Staphylococcus aureus-specific detection media and identifying and/or counting method using same” (Biomerieux S.A., priority 2001, dated 2010).
# Legend:
# S. aureus 276 [1] = assay: Experiment 4: naphthol derivative substrates in API galleries, liquid medium; assay type: cell-based, Staphylococcus aureus; set-up: key to intensity of coloration (enzyme activity mark): the mark 0 corresponds to a negative reaction; marks 1, 2, 3 and 4 indicate intermediate levels of coloration and therefore of enzyme activity; marks 1, 2, 3 and 4 indicate intermediate levels of coloration and therefore of enzyme activity; marks 1, 2, 3 and 4 indicate intermediate levels of coloration and therefore of enzyme activity; marks 1, 2, 3 and 4 indicate intermediate levels of coloration and therefore of enzyme activity; the mark 5 to a reaction of maximum intensity; settings: for intensity of coloration (enzyme activity mark): S. aureus 276, 4 hours of incubation at 37° C.
# Experimental: (§1) The experiment below was carried out in a liquid medium and in the presence of naphthol derivative-based chromogenic substrates.
# (§2) The medium and the substrates are distributed into API “galleries” (trademark) produced by the company bioMérieux at Marcy I'Etoile, France.
# (§3) These “galleries” constitute a semi-quantitative method for searching for enzyme activities in microorganisms and make it possible to rapidly and simultaneously study nineteen enzyme activities. Each “gallery” comprises twenty cupules in which the solutions containing the enzyme substrates are distributed. The enzyme assays are carried out by distributing 65 μl of bacterial suspension at 5-6 McFarland into each cupule.
# (§4) The intensity of coloration for each cupule is examined visually after 4 hours of incubation at 37° C. and after the addition of appropriate reagents: ZYM A (ref.: 70470) and ZYM B (ref.: 70480), which can be obtained from bioMérieux also mentioned above. The intensity of coloration will be directly proportional to the amount of substrate hydrolysed by the enzyme.
# (§5) The values for the intensity of coloration are then marked on a results sheet according to the following classification: the mark 0 corresponds to a negative reaction, the mark 5 to a reaction of maximum intensity, marks 1, 2, 3 and 4 indicate intermediate levels of coloration and therefore of enzyme activity. More detailed information on this marking can be found in the API reading scale provided with the “galleries” of the same name.
# (§6) The enzyme activity sought and the corresponding naphthol derivative substrates are described in table 6 below: […]
# S. saprophyticus 009 = assay: as above; assay type: cell-based, Staphylococcus saprophyticus; set-up: key: the mark 0 corresponds to a negative reaction; marks 1, 2, 3 and 4 indicate intermediate levels of coloration and therefore of enzyme activity; marks 1, 2, 3 and 4 indicate intermediate levels of coloration and therefore of enzyme activity; marks 1, 2, 3 and 4 indicate intermediate levels of coloration and therefore of enzyme activity; marks 1, 2, 3 and 4 indicate intermediate levels of coloration and therefore of enzyme activity; the mark 5 to a reaction of maximum intensity; settings: 4 hours of incubation at 37° C.
# Experimental: as §1, §2, §3, §4, §5, §6
# S. epidermidis 103 = assay: as above; assay type: cell-based, Staphylococcus epidermidis; set-up: key: the mark 0 corresponds to a negative reaction; marks 1, 2, 3 and 4 indicate intermediate levels of coloration and therefore of enzyme activity; marks 1, 2, 3 and 4 indicate intermediate levels of coloration and therefore of enzyme activity; marks 1, 2, 3 and 4 indicate intermediate levels of coloration and therefore of enzyme activity; marks 1, 2, 3 and 4 indicate intermediate levels of coloration and therefore of enzyme activity; the mark 5 to a reaction of maximum intensity; settings: 4 hours of incubation at 37° C.
# Experimental: as §1, §2, §3, §4, §5, §6
# S. haemolyticus 137 = assay: as above; assay type: cell-based, Staphylococcus haemolyticus; set-up: key: the mark 0 corresponds to a negative reaction; marks 1, 2, 3 and 4 indicate intermediate levels of coloration and therefore of enzyme activity; marks 1, 2, 3 and 4 indicate intermediate levels of coloration and therefore of enzyme activity; marks 1, 2, 3 and 4 indicate intermediate levels of coloration and therefore of enzyme activity; marks 1, 2, 3 and 4 indicate intermediate levels of coloration and therefore of enzyme activity; the mark 5 to a reaction of maximum intensity; settings: 4 hours of incubation at 37° C.
# Experimental: as §1, §2, §3, §4, §5, §6
# S. intermedius 075 [2] = assay: as above; assay type: cell-based, Staphylococcus intermedius; set-up: key: the mark 0 corresponds to a negative reaction; marks 1, 2, 3 and 4 indicate intermediate levels of coloration and therefore of enzyme activity; marks 1, 2, 3 and 4 indicate intermediate levels of coloration and therefore of enzyme activity; marks 1, 2, 3 and 4 indicate intermediate levels of coloration and therefore of enzyme activity; marks 1, 2, 3 and 4 indicate intermediate levels of coloration and therefore of enzyme activity; the mark 5 to a reaction of maximum intensity; settings: 4 hours of incubation at 37° C.
# Experimental: as §1, §2, §3, §4, §5, §6
# Staphylococcal species = assay: Experiment 6: Staphylococcal growth in the presence of inhibitors; assay type: cell-based, Staphylococcus; settings: inhibitors added to the medium, concentrations per mixture
# S. aureus 070 = assay: Experiment 5: fluorescent substrates in liquid medium, VITEK 2 reading; assay type: cell-based, Staphylococcus aureus; settings: substrate 200 mg/l, read over 19 hours
# Experimental: (§7) The media below were prepared in the base of the medium described in experiment 1, but in the absence of agar and in the presence of a fluorescent substrate instead of a chromogenic substrate. […] The various liquid media are distributed into the cupules of a support the size of a bank card, specific for the automated VITEK 2 (trademark) system of the company bioMérieux. […] The results, given in table 9 below, represent the incubation time, in hours, required to obtain the maximum level of fluorescence which can be measured by the device: […]
# S. aureus 276 [3] = assay: as above; assay type: cell-based, Staphylococcus aureus; settings: substrate 200 mg/l, read over 19 hours
# Experimental: as §7
# S. epidermidis 009 = assay: as above; assay type: cell-based, Staphylococcus epidermidis; settings: substrate 200 mg/l, read over 19 hours
# Experimental: as §7
# S. xylosus 008 = assay: as above; assay type: cell-based, Staphylococcus xylosus; settings: substrate 200 mg/l, read over 19 hours
# Experimental: as §7
# S. saprophyticus 030 = assay: as above; assay type: cell-based, Staphylococcus saprophyticus; settings: substrate 200 mg/l, read over 19 hours
# Experimental: as §7
# S. haemolyticus 131 = assay: as above; assay type: cell-based, Staphylococcus haemolyticus; settings: substrate 200 mg/l, read over 19 hours
# Experimental: as §7
# S. intermedius 075 [4] = assay: as above; assay type: cell-based, Staphylococcus intermedius; settings: substrate 200 mg/l, read over 19 hours
# Experimental: as §7
# α-glucosidase = assay: Experiment 6: detection of α-glucosidase activity in the presence of inhibitors; assay type: cell-based, Staphylococcus; settings: inhibitors added to the medium, concentrations per mixture
# [5] = system: coagulase-positive staphylococcal strains; assay: Experiment 5: fluorescent substrates, summary for coagulase-positive strains; assay type: cell-based, Staphylococcus aureus and Staphylococcus intermedius
# Experimental: as §7
# [6] = system: coagulase-negative strains; assay: Experiment 5: fluorescent substrates, summary for coagulase-negative strains; assay type: cell-based
# Experimental: as §7
molecule,measurement,setting,value
naphthol-β-D-glucuronide [No 5],intensity of coloration (enzyme activity mark),S. aureus 276 [1],0
same,intensity of coloration (enzyme activity mark),S. saprophyticus 009,0
same,intensity of coloration (enzyme activity mark),S. epidermidis 103,0
same,intensity of coloration (enzyme activity mark),S. haemolyticus 137,0
same,intensity of coloration (enzyme activity mark),S. intermedius 075 [2],0
"[Cl-].[Li+] [LiCl, lithium chloride]",Staphylococcal growth,Staphylococcal species,decreases
"OC[C@H]1O[C@@H](Oc2ccc3ccccc3c2)[C@H](O)[C@@H](O)[C@H]1O [No 4, 2-naphthyl-β-D-galactopyranoside]",intensity of coloration (enzyme activity mark),S. aureus 276 [1],0
same,intensity of coloration (enzyme activity mark),S. saprophyticus 009,3
same,intensity of coloration (enzyme activity mark),S. epidermidis 103,0
same,intensity of coloration (enzyme activity mark),S. haemolyticus 137,0
same,intensity of coloration (enzyme activity mark),S. intermedius 075 [2],3
"OC[C@H]1O[C@@H](Oc2ccc3cc(Br)ccc3c2)[C@H](O)[C@@H](O)[C@@H]1O [No 7, 6-bromo-2-naphtyl-β-D-glucopyranoside]",intensity of coloration (enzyme activity mark),S. aureus 276 [1],0
same,intensity of coloration (enzyme activity mark),S. saprophyticus 009,0
same,intensity of coloration (enzyme activity mark),S. epidermidis 103,0
same,intensity of coloration (enzyme activity mark),S. haemolyticus 137,0
same,intensity of coloration (enzyme activity mark),S. intermedius 075 [2],0
"Cc1cc(=O)oc2cc(O[C@@H]3O[C@H](CO)[C@H](O)[C@H](O)[C@H]3O)ccc12 [4-MU-β-GAL, 4-methylumbelliferyl-β-D-galactoside]",hours of incubation required to obtain the maximum level of fluorescence,S. aureus 070,3 h
same,hours of incubation required to obtain the maximum level of fluorescence,S. aureus 276 [3],3 h
same,hours of incubation required to obtain the maximum level of fluorescence,S. epidermidis 009,4 h
same,hours of incubation required to obtain the maximum level of fluorescence,S. xylosus 008,5 h
same,hours of incubation required to obtain the maximum level of fluorescence,S. saprophyticus 030,12 h
same,hours of incubation required to obtain the maximum level of fluorescence,S. haemolyticus 131,12 h
same,hours of incubation required to obtain the maximum level of fluorescence,S. intermedius 075 [4],2 h
"OC[C@H]1O[C@H](Oc2ccc3ccccc3c2)[C@H](O)[C@@H](O)[C@@H]1O [No 6, 2-naphthyl-α-D-glucopyranoside]",intensity of coloration (enzyme activity mark),S. aureus 276 [1],5
same,α-glucosidase activity,"S. aureus 276 [1]; Staphylococcus aureus strain, API gallery",strongly expressed
same,intensity of coloration (enzyme activity mark),S. saprophyticus 009,1
same,intensity of coloration (enzyme activity mark),S. epidermidis 103,1
same,intensity of coloration (enzyme activity mark),S. haemolyticus 137,2
same,intensity of coloration (enzyme activity mark),S. intermedius 075 [2],1
colistin,Staphylococcal growth,Staphylococcal species,virtually no effect
C[C@H]1[C@H](NC(=O)/C(=N\OC(C)(C)C(=O)O)c2csc(N)n2)C(=O)N1S(=O)(=O)O [aztreonam],Staphylococcal growth,Staphylococcal species,does not disturb the bacterial growth
same,effect on detection/expression of α-glucosidase,α-glucosidase,very slightly decreased
"OC[C@H]1O[C@H](Oc2ccc3cc(Br)ccc3c2)[C@H](O)[C@@H](O)[C@H]1O [No 3, 6-bromo-2-naphthyl-α-D-galactopyranoside]",intensity of coloration (enzyme activity mark),S. aureus 276 [1],0
same,intensity of coloration (enzyme activity mark),S. saprophyticus 009,0
same,intensity of coloration (enzyme activity mark),S. epidermidis 103,0
same,intensity of coloration (enzyme activity mark),S. haemolyticus 137,0
same,intensity of coloration (enzyme activity mark),S. intermedius 075 [2],0
"Cc1cc(=O)oc2cc(O[C@@H]3O[C@H](CO)[C@@H](O)[C@H](O)[C@H]3O)ccc12 [4-MU-β-GLU, 4-methylumbelliferyl-β-D-glucoside]",hours of incubation required to obtain the maximum level of fluorescence,S. aureus 070,4 h
same,hours of incubation required to obtain the maximum level of fluorescence,S. aureus 276 [3],6 h
same,hours of incubation required to obtain the maximum level of fluorescence,S. epidermidis 009,8 h
same,hours of incubation required to obtain the maximum level of fluorescence,S. xylosus 008,9 h
same,hours of incubation required to obtain the maximum level of fluorescence,S. saprophyticus 030,9 h
same,hours of incubation required to obtain the maximum level of fluorescence,S. haemolyticus 131,7 h
same,hours of incubation required to obtain the maximum level of fluorescence,S. intermedius 075 [4],7 h
"Cc1cc(=O)oc2cc(O[C@H]3O[C@H](CO)[C@@H](O)[C@H](O)[C@H]3O)ccc12 [4-MU-α-GLU, 4-methylumbelliferyl-α-D-glucoside]",hours of incubation required to obtain the maximum level of fluorescence,S. aureus 070,8 h
same,hours of incubation required to obtain the maximum level of fluorescence,S. aureus 276 [3],7 h
same,hours of incubation required to obtain the maximum level of fluorescence,S. epidermidis 009,19 h
same,hours of incubation required to obtain the maximum level of fluorescence,S. xylosus 008,11 h
same,hours of incubation required to obtain the maximum level of fluorescence,S. saprophyticus 030,19 h
same,hours of incubation required to obtain the maximum level of fluorescence,S. haemolyticus 131,19 h
same,hours of incubation required to obtain the maximum level of fluorescence,S. intermedius 075 [4],5 h
same,incubation time to obtain a maximum level of fluorescence,[5],< 8 h
same,incubation time to obtain a maximum level of fluorescence,[6],> 10 h
"Cc1cc(=O)oc2cc(O[C@@H]3O[C@H](C(=O)O)[C@@H](O)[C@H](O)[C@H]3O)ccc12 [4-MU-β-GUR, 4-methylumbelliferyl-β-D-glucuronide]",hours of incubation required to obtain the maximum level of fluorescence,S. aureus 070,3 h
same,hours of incubation required to obtain the maximum level of fluorescence,S. aureus 276 [3],3 h
same,hours of incubation required to obtain the maximum level of fluorescence,S. epidermidis 009,4 h
same,hours of incubation required to obtain the maximum level of fluorescence,S. xylosus 008,5 h
same,hours of incubation required to obtain the maximum level of fluorescence,S. saprophyticus 030,19 h
same,hours of incubation required to obtain the maximum level of fluorescence,S. haemolyticus 131,19 h
same,hours of incubation required to obtain the maximum level of fluorescence,S. intermedius 075 [4],2 h
"O=P(O)(O)Oc1ccc2ccccc2c1 [No 2, 2-naphthyl-phosphate]",intensity of coloration (enzyme activity mark),S. aureus 276 [1],2
same,intensity of coloration (enzyme activity mark),S. saprophyticus 009,1
same,intensity of coloration (enzyme activity mark),S. epidermidis 103,3
same,intensity of coloration (enzyme activity mark),S. haemolyticus 137,0
same,intensity of coloration (enzyme activity mark),S. intermedius 075 [2],4
